Laboratory results: patent US20250034170A1, “SMALL MOLECULE MODULATORS OF GLUCOCEREBROSIDASE ACTIVITY AND USES THEREOF” (Vanqua Bio, Inc., priority 2021, published 2025)
pEC50: −log10 of the molar value.

Each compound was assayed against T1, GCase (Homo sapiens, UniProt P04062) (assay: activation of GCase in a live cell PFB assay in HELA cells). Conditions: activation of GCase, EC50 ranges.
T1 construct: endogenous in cells; host or cells: HeLa cells
T1 sequence (P04062 40-536): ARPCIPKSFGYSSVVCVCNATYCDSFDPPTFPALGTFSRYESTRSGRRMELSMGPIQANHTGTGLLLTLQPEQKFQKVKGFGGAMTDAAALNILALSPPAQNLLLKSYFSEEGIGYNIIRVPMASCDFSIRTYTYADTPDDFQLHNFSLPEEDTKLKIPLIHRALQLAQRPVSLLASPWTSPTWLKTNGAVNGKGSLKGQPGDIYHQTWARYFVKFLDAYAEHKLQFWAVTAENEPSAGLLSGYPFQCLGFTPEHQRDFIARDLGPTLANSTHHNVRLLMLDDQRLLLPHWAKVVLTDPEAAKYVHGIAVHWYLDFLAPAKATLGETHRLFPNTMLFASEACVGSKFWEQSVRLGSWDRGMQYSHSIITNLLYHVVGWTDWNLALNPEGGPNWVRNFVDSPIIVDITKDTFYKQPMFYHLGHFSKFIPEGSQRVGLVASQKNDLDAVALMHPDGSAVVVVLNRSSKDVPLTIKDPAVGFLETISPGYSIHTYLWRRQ
Assay type: cell-based
Procedure: Exemplary compounds were evaluated for activation of GCase in a live cell PFB assay in HELA cells (essentially as described in Ysselstein et al., “LRRK2 kinase activity regulates lysosomal glucocerebrosidase in neurons derived from Parkinson's disease patients” Nature Communications (2019) 10:5570). […] EC50 ranges: A: <10 μM; B: >10-50 μM; C: >50-100 μM; D: >100 μM.

pEC50	SMILES
4.30 to 5.00	FC(F)Cn1ncc2ncc(N3CCC4(C3)CN(c3nnc(C(F)(F)F)s3)C4)nc21 [Cmpd 1046]
< 4.00	Cc1sc(N2CC3(CCN(c4cnc5cnn(CC(F)F)c5n4)C3)C2)nc1C(F)(F)F [Cmpd 1047]
4.30 to 5.00	CC[C@H]1N(c2cnc(C(F)(F)F)nc2)C[C@]12CCN(c1cnc3cnn(CC(F)F)c3n1)C2 [Cmpd 1048]
4.30 to 5.00	CC[C@@H]1N(c2cnc(C(F)(F)F)nc2)C[C@]12CCN(c1cnc3cnn(CC(F)F)c3n1)C2 [Cmpd 1049]
4.30 to 5.00	CCn1c(N2CCC3(CN(c4nnc(C(F)(F)F)s4)C3)C2)nc2c(cnn2CC(F)F)c1=O [Cmpd 1050]
4.00 to 4.30	FC(F)Cn1ncc2cnc(N3CCC4(C3)CN(c3nnc(C(F)(F)F)s3)C4)nc21 [Cmpd 1051]
> 5.00	Cc1nnc(-c2cncc(N3CCC4(CN(c5ccnc(C(F)(F)F)c5)C4)C3)n2)s1 [Cmpd 1052]
> 5.00	Cc1nc(N2CCC3(CCN(c4nc5c(cnn5CC(F)F)c(=O)n4C)CC3)C2)cc(C(F)(F)F)n1 [Cmpd 1053]
> 5.00	Cn1c(N2CCC3(CCN(c4ccc(C(F)(F)F)nc4)C3)CC2)nc2c(cnn2CC(F)F)c1=O [Cmpd 1054]
> 5.00	FC(F)(F)c1cc(N2CCC3(CCN(c4cnc5cnn(C6COC6)c5n4)CC3)C2)cnn1 [Cmpd 1055]
4.30 to 5.00	Cc1nc(C(F)(F)F)ncc1N1CCC2(CCN(c3cnc4cnn(C5COC5)c4n3)CC2)C1 [Cmpd 1056]
4.30 to 5.00	Cn1c(N2CCC3(CCN(c4nccc(C(F)(F)F)n4)C3)CC2)nc2c(cnn2C2COC2)c1=O [Cmpd 1057]
4.30 to 5.00	Cn1c(N2CCC3(CCN(c4ncc(C(F)(F)F)cn4)C3)CC2)nc2c(cnn2C2COC2)c1=O [Cmpd 1058]
> 5.00	Cn1c(N2CCC3(CCN(c4ccnc(C(F)(F)F)c4)C3)CC2)nc2c(cnn2C2COC2)c1=O [Cmpd 1059]
> 5.00	Cn1c(N2CCC3(CCN(c4ccnc(C(F)(F)F)n4)C3)CC2)nc2c(cnn2C2COC2)c1=O [Cmpd 1060]
4.00 to 4.30	O=C([C@H]1CCn2c1nccc2=O)N1CCC2(C1)CN(c1ccnc(C(F)(F)F)c1)C2 [Cmpd 1061]
4.30 to 5.00	FC(F)c1nnc(-c2cncc(N3CCC4(CN(c5ccnc(C(F)(F)F)c5)C4)C3)n2)s1 [Cmpd 1062]
4.30 to 5.00	Cc1nc(N2CC3(CCN(c4cnc5cnn(C6COC6)c5n4)C3)C2)cc(C(F)(F)F)n1 [Cmpd 1063]
4.30 to 5.00	CCc1nn(CC(F)F)c2nc(N3CCC4(CN(c5cc(C(F)(F)F)nc(C)n5)C4)C3)cnc12 [Cmpd 1064]
4.30 to 5.00	CCc1nn(C2COC2)c2nc(N3CCC4(CN(c5cc(C(F)(F)F)nc(C)n5)C4)C3)cnc12 [Cmpd 1065]
4.30 to 5.00	CCc1nn(CC(F)F)c2nc(N3CCC4(CN(c5cc(C(F)(F)F)nc(C)n5)C4)C3)ncc12 [Cmpd 1066]
> 5.00	CCc1nn(C2COC2)c2nc(N3CCC4(CN(c5cc(C(F)(F)F)nc(C)n5)C4)C3)ncc12 [Cmpd 1067]
4.30 to 5.00	CCc1nn(CC(F)F)c2nc(N3CCC4(CN(c5ccnc(C(F)(F)F)c5)C4)C3)cnc12 [Cmpd 1068]

pEC50	SMILES
4.30 to 5.00	CCc1nn(C2COC2)c2nc(N3CCC4(CN(c5ccnc(C(F)(F)F)c5)C4)C3)cnc12 [Cmpd 1069]
> 5.00	CCc1nn(C2COC2)c2nc(N3CCC4(CN(c5ccnc(C(F)(F)F)c5)C4)C3)ncc12 [Cmpd 1070]
> 5.00	CCc1nn(CC(F)F)c2nc(N3CCC4(CN(c5ccnc(C(F)(F)F)c5)C4)C3)ncc12 [Cmpd 1071]
4.30 to 5.00	FC(F)Cn1ncc2cnc(N3CCC4(CN(c5ccnc(C(F)(F)F)c5)C4)C3)cc21 [Cmpd 1072]
> 5.00	FC(F)Cn1ncc2ccc(N3CCC4(CN(c5ccnc(C(F)(F)F)c5)C4)C3)nc21 [Cmpd 1073]
> 5.00	CCn1c(=O)n(CC(F)F)c2nc(N3CCC4(CN(c5cc(C(F)(F)F)nc(C)n5)C4)C3)cnc21 [Cmpd 1074]
4.30 to 5.00	CCn1c(=O)n(CC(F)F)c2ncc(N3CCC4(CN(c5cc(C(F)(F)F)nc(C)n5)C4)C3)nc21 [Cmpd 1075]
4.30 to 5.00	Cc1cc(N2CC3(CCN(c4ncc5cnn(CC(C)(F)F)c5n4)C3)C2)nc(C(F)(F)F)n1 [Cmpd 1076]
> 5.00	Cc1nc(N2CC3(CCN(c4cnc5c(n4)n(CC(F)F)c(=O)n5C)C3)C2)cc(C(F)(F)F)n1 [Cmpd 1077]
> 5.00	Cc1nc(N2CC3(CCN(c4cnc5c(n4)n(C)c(=O)n5CC(F)F)C3)C2)cc(C(F)(F)F)n1 [Cmpd 1078]
4.30 to 5.00	Cc1nc(N2CC[C@]3(CCN(c4ncc5c(C)nn(C6COC6)c5n4)C3)C2)cc(C(F)(F)F)n1 [Cmpd 1079]
4.30 to 5.00	Cc1nc(N2CC[C@@]3(CCN(c4ncc5c(C)nn(C6COC6)c5n4)C3)C2)cc(C(F)(F)F)n1 [Cmpd 1080]
> 5.00	CCn1c(=O)n(CC(F)F)c2nc(N3CCC4(CN(c5cc(C(F)(F)F)nc(C)n5)C4)C3)ncc21 [Cmpd 1081]
> 5.00	Cc1nc(N2CC3(CCN(c4ncc5c(n4)n(CC(F)F)c(=O)n5C)C3)C2)cc(C(F)(F)F)n1 [Cmpd 1082]
4.30 to 5.00	CCn1c(=O)n(CC(F)F)c2nc(N3CCC4(C3)CN(c3cnc(C)nc3C(F)(F)F)C4)ncc21 [Cmpd 1083]
> 5.00	Cc1nc(N2CC3(CCN(c4nc5c(cnn5CC(F)F)c(=O)n4C)C3)C2)cc(C(F)(F)F)n1 [Cmpd 1084]
> 5.00	CCn1c(=O)n(CC(F)F)c2nc(N3CCC4(CC3)CCN(c3cnc(C(F)(F)F)nc3C)C4)cnc21 [Cmpd 1085]
4.30 to 5.00	Cc1nc(C(F)(F)F)ncc1N1CCC2(CCN(c3nc4c(cnn4CC(F)F)c(=O)n3C)CC2)C1 [Cmpd 1086]
> 5.00	Cc1cc(N2CCC3(CCN(c4nc5c(cnn5CC(F)F)c(=O)n4C)CC3)C2)nc(C(F)(F)F)n1 [Cmpd 1087]
> 5.00	CC(F)(F)c1ncc(N2CC3(CCN(c4cnc5cnn(CC(F)F)c5n4)C3)C2)cn1 [Cmpd 1088]
4.30 to 5.00	CCc1nc(N2CC3(CCN(c4cnc5cnn(CC(F)F)c5n4)C3)C2)cc(C(F)(F)F)n1 [Cmpd 1089]
< 4.00	FC(F)(F)c1cc(N2CC3(CCN(c4cnc5cnn(C6CCOCC6)c5n4)C3)C2)ccn1 [Cmpd 1090]
< 4.00	FC(F)(F)c1cc(N2CC3(CCN(c4cnc5cnn([C@@H]6CCOC6)c5n4)C3)C2)ccn1 [Cmpd 1091]

pEC50	SMILES
< 4.00	FC(F)(F)c1cc(N2CC3(CCN(c4cnc5cnn([C@H]6CCOC6)c5n4)C3)C2)ccn1 [Cmpd 1092]
4.30 to 5.00	COc1nn(CC(F)F)c2nc(N3CCC4(C3)CN(c3cnc(C(F)(F)F)nc3C)C4)cnc12 [Cmpd 1093]
> 5.00	COc1nn(CC(F)F)c2nc(N3CCC4(CC3)CCN(c3cnc(C(F)(F)F)nc3C)C4)cnc12 [Cmpd 1094]
4.30 to 5.00	COc1nn(CC(F)F)c2nc(N3CCC4(CN(c5cc(C(F)(F)F)nc(C)n5)C4)C3)cnc12 [Cmpd 1095]
> 5.00	COc1nn(CC(F)F)c2nc(N3CCC4(CCN(c5cc(C(F)(F)F)nc(C)n5)C4)CC3)cnc12 [Cmpd 1096]
4.30 to 5.00	COc1nn(CC(F)F)c2nc(N3CCC4(CN(c5cc(C)nc(C(F)(F)F)n5)C4)C3)cnc12 [Cmpd 1097]
> 5.00	COc1nn(CC(F)F)c2nc(N3CCC4(CCN(c5cc(C)nc(C(F)(F)F)n5)C4)CC3)cnc12 [Cmpd 1098]
> 5.00	CCn1c(N2CCC3(CCN(c4ccnc(C(F)(F)F)c4)C3)CC2)nc2c(cnn2CC(F)F)c1=O [Cmpd 1099]
4.30 to 5.00	CCn1c(N2CCC3(CCN(c4ccnc(C(F)(F)F)c4)C3)C2)nc2c(cnn2CC(F)F)c1=O (stereo not shown) [Cmpd 1100]
4.30 to 5.00	CCn1c(N2CCC3(CN(c4ccnc(C(F)(F)F)c4)C3)C2)nc2c(cnn2CC(F)F)c1=O [Cmpd 1101]
> 5.00	CCn1c(N2CCC3(CCN(c4cc(C(F)(F)F)nc(C)n4)C3)CC2)nc2c(cnn2CC(F)F)c1=O [Cmpd 1102]
> 5.00	CCn1c(N2CCC3(CN(c4cc(C(F)(F)F)nc(C)n4)C3)C2)nc2c(cnn2CC(F)F)c1=O [Cmpd 1103]
4.30 to 5.00	Cc1nn(CC(F)F)c2nc(N3CCC4(CCN(c5ccnc(C(F)(F)F)c5)C4)CC3)n(C)c(=O)c12 [Cmpd 1104]
> 5.00	CCn1c(N2CCC3(CCN(c4cc(C)nc(C(F)(F)F)n4)C3)CC2)nc2c(cnn2CC(F)F)c1=O [Cmpd 1105]
> 5.00	CCCn1c(N2CCC3(CCN(c4cc(C(F)(F)F)nc(C)n4)C3)CC2)nc2c(cnn2CC(F)F)c1=O [Cmpd 1106]
> 5.00	Cc1nc(N2CCC3(CCN(c4nc5c(cnn5CC(F)F)c(=O)n4CC(C)C)CC3)C2)cc(C(F)(F)F)n1 [Cmpd 1107]
> 5.00	Cc1nc(N2CCC3(CCN(c4nc5c(cnn5CC(F)F)c(=O)n4CC4CC4)CC3)C2)cc(C(F)(F)F)n1 [Cmpd 1108]
4.00 to 4.30	CCn1c(N2CCC3(CCN(c4cc(C(F)(F)F)nc(C)n4)C3)CC2)nc2c(cnn2C2COC2)c1=O [Cmpd 1110]
4.30 to 5.00	CCCn1c(N2CCC3(CN(c4cc(C(F)(F)F)nc(C)n4)C3)C2)nc2c(cnn2CC(F)F)c1=O [Cmpd 1111]
> 5.00	Cc1nc(N2CC3(CCN(c4nc5c(cnn5CC(F)F)c(=O)n4CC(C)C)C3)C2)cc(C(F)(F)F)n1 [Cmpd 1112]
4.30 to 5.00	Cc1nc(N2CC3(CCN(c4nc5c(cnn5CC(F)F)c(=O)n4CC4CC4)C3)C2)cc(C(F)(F)F)n1 [Cmpd 1113]
